Source: ChEMBL document CHEMBL1157483, “Discovery of potent, orally active benzimidazole glucagon receptor antagonists” (Bioorg Med Chem Lett, 2008)
Active and inactive are the calls of the source. No cut-off for these calls is given here.

How the values were obtained:
[1] = biological target: Voltage-gated inwardly rectifying potassium channel KCNH2 (Homo sapiens, UniProt Q12809); test: Inhibition of hERG potassium channel; format: toxicity
[2] = Volume of distribution at steady state in dog at 0.25 mg/kg, iv and 1 mg/kg, po; format: ADME, organism-based, Canis lupus familiaris; settings: in vivo, read-out: Vdss
[3] = system: Rhesus monkey; test: Inhibition of glucagon-dependent glucose excursion in rhesus monkey at 3 mg/kg, po; format: functional, organism-based; set-up: dose 3 mg/kg; settings: Macaca mulatta
[4] = biological target: Glucagon-like peptide 1 receptor, Homo sapiens (UniProt P43220); test: Binding affinity against human GLP1
Sequence of Glucagon-like peptide 1 receptor, Homo sapiens (P43220 whole entry, looked up): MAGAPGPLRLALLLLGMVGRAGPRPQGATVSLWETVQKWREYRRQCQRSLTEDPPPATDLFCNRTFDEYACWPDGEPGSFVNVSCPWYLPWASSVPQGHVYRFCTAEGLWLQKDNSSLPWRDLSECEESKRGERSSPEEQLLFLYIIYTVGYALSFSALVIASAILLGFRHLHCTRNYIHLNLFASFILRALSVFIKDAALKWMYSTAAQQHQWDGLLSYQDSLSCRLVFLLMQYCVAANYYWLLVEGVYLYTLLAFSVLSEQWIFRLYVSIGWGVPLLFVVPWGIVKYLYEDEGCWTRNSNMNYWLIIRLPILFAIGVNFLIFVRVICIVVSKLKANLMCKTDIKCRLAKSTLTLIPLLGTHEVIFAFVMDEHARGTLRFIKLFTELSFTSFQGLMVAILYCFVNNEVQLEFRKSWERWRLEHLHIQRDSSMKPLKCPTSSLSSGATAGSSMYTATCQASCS

[5] = biological target: Cytochrome P450 2D6 (Homo sapiens, UniProt P10635); test: Inhibition of CYP2D6; format: ADME
Sequence of Cytochrome P450 2D6 (P10635 whole entry): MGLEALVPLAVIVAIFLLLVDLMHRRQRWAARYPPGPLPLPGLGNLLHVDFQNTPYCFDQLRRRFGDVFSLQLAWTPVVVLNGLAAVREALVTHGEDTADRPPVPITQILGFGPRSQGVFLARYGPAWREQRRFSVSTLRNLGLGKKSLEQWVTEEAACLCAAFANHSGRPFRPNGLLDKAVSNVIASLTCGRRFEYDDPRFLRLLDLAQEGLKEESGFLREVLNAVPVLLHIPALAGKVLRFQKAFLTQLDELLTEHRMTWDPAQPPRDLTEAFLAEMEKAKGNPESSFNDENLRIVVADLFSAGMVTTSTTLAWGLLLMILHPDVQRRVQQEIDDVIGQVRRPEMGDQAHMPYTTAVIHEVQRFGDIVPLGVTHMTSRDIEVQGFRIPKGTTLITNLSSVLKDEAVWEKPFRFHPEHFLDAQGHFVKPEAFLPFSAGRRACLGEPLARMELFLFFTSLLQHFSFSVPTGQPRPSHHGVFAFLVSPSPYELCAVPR

[6] = Half life in dog at 0.25 mg/kg, iv and 1 mg/kg, po; format: ADME, organism-based, Canis lupus familiaris; settings: in vivo
[7] = Volume of distribution at steady state in rat at 1 mg/kg, iv and 2 mg/kg, po; format: ADME, organism-based; settings: in vivo, read-out: Vdss
[8] = Oral bioavailability in dog at 1 mg/kg; format: ADME, organism-based, Canis lupus familiaris; settings: in vivo
[9] = Antagonist activity against rhesus monkey glucagon receptor assessed as cAMP accumulation; format: functional, Macaca mulatta
[10] = Oral bioavailability in mouse at 2 mg/kg; format: ADME, organism-based; settings: in vivo
[11] = biological target: T1, Glucagon receptor (Homo sapiens, UniProt P47871); test: Displacement of [125I]glucagon from human GCGR expressed in CHO cells; format: cell-based
T1 sequence (P47871 whole entry): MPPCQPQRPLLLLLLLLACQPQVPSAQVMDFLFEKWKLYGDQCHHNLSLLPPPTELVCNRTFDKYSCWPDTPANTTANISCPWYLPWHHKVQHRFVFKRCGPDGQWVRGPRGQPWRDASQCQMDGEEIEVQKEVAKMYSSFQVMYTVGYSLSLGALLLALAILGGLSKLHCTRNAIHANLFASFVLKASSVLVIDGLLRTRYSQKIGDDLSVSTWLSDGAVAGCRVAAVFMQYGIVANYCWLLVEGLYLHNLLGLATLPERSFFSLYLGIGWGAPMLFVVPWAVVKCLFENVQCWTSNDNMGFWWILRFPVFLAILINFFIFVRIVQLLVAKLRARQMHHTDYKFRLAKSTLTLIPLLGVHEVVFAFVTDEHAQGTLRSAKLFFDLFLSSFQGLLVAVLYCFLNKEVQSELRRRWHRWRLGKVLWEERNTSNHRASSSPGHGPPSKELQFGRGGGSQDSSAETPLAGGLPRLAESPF

[12] = biological target: T2, Gastric inhibitory polypeptide receptor (Homo sapiens, UniProt P48546); test: Binding affinity against human GIP
T2 sequence (P48546 whole entry): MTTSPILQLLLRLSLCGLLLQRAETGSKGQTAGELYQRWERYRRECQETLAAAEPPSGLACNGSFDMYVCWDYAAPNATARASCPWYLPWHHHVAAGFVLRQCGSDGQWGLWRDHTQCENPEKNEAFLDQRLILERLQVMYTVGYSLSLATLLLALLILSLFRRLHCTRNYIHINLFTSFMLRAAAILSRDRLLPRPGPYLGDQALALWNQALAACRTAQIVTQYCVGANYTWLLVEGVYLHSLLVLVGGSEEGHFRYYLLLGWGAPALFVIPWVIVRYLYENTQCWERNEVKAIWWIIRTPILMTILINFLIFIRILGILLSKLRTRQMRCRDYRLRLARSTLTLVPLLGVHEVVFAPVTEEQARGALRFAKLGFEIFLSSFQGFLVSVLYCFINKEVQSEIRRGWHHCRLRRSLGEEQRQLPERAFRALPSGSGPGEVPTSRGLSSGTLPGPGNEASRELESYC

[13] = Volume of distribution at steady state in mouse at 1 mg/kg, iv and 2 mg/kg, po; format: ADME, organism-based; settings: in vivo, read-out: Vdss
[14] = Oral bioavailability in rhesus monkey at 2 mg/kg; format: ADME, organism-based, Macaca mulatta; settings: in vivo
[15] = Half life in rhesus monkey at 0.5 mg/kg, iv and 2 mg/kg, po; format: ADME, organism-based, Macaca mulatta; settings: in vivo
[16] = system: Mus musculus; test: Inhibition of glucagon-dependent glucose excursion in transgenic mouse expressing human glucagon receptor at 3 to 30 mg/kg, po; format: functional, organism-based
[17] = biological target: Cytochrome P450 3A4 (Homo sapiens, UniProt P08684); test: Inhibition of CYP3A4; format: ADME
Sequence of Cytochrome P450 3A4 (P08684 whole entry): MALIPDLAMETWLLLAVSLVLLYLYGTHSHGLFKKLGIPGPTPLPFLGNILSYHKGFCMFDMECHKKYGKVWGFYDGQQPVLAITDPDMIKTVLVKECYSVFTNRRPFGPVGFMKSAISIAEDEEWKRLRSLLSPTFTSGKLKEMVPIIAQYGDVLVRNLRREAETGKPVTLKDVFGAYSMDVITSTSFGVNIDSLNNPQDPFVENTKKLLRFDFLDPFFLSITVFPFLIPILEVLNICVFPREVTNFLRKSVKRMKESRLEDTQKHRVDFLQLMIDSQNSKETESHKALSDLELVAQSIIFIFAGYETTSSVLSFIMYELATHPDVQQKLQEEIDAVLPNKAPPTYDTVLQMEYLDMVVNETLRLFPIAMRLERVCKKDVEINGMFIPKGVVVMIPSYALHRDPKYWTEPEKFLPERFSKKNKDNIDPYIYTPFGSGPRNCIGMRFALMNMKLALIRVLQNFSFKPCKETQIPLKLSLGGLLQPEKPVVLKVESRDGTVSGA

[18] = biological target: T1, Glucagon receptor; test: Antagonist activity against human GCGR expressed in CHO cells assessed as glucagon-induced cAMP accumulation; format: functional, cell-based
[19] = species: Homo sapiens; test: Selectivity for human glucagon receptor over human GLP1
[20] = system: Mus musculus; test: Reduction of glucose level in po dosed fat diet-induced diabetic mouse transgenic model expressing human glucagon receptor administered for 10 days; format: functional, organism-based
[21] = biological target: Cytochrome P450 2C9 (Homo sapiens, UniProt P11712); test: Inhibition of CYP2C9; format: ADME
Sequence of Cytochrome P450 2C9 (P11712 whole entry): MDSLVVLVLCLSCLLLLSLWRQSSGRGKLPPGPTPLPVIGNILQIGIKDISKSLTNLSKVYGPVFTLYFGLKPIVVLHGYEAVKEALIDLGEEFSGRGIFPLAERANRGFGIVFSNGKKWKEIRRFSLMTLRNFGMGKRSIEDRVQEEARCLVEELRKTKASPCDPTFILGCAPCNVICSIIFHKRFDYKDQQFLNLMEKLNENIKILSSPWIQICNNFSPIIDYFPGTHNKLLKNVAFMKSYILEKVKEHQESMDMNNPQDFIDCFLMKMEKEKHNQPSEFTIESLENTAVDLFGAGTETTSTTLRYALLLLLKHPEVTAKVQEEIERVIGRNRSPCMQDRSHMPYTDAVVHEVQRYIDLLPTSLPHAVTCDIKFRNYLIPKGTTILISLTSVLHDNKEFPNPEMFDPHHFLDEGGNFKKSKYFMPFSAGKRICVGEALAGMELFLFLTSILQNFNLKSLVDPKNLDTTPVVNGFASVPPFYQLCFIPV

[22] = Clearance in mouse at 1 mg/kg, iv and 2 mg/kg, po; format: ADME, organism-based; settings: in vivo
[23] = system: Rhesus monkey; test: Inhibition of glucagon-dependent glucose excursion in rhesus monkey at 10 mg/kg, po; format: functional, organism-based; set-up: dose 10 mg/kg; settings: Macaca mulatta
[24] = species: Homo sapiens; test: Selectivity for human glucagon receptor over human GIP
[25] = Volume of distribution at steady state in rhesus monkey at 0.5 mg/kg, iv and 2 mg/kg, po; format: ADME, organism-based, Macaca mulatta; settings: in vivo, read-out: Vdss
[26] = Clearance in dog at 0.25 mg/kg, iv and 1 mg/kg, po; format: ADME, organism-based, Canis lupus familiaris; settings: in vivo
[27] = Half life in rat at 1 mg/kg, iv and 2 mg/kg, po; format: ADME, organism-based; settings: in vivo
[28] = Oral bioavailability in rat at 2 mg/kg; format: ADME, organism-based; settings: in vivo
[29] = Clearance in rat at 1 mg/kg, iv and 2 mg/kg, po; format: ADME, organism-based; settings: in vivo
[30] = Half life in mouse at 1 mg/kg, iv and 2 mg/kg, po; format: ADME, organism-based; settings: in vivo
[31] = Clearance in rhesus monkey at 0.5 mg/kg, iv and 2 mg/kg, po; format: ADME, organism-based, Macaca mulatta; settings: in vivo

Sequence of Voltage-gated inwardly rectifying potassium channel KCNH2 (Q12809 whole entry): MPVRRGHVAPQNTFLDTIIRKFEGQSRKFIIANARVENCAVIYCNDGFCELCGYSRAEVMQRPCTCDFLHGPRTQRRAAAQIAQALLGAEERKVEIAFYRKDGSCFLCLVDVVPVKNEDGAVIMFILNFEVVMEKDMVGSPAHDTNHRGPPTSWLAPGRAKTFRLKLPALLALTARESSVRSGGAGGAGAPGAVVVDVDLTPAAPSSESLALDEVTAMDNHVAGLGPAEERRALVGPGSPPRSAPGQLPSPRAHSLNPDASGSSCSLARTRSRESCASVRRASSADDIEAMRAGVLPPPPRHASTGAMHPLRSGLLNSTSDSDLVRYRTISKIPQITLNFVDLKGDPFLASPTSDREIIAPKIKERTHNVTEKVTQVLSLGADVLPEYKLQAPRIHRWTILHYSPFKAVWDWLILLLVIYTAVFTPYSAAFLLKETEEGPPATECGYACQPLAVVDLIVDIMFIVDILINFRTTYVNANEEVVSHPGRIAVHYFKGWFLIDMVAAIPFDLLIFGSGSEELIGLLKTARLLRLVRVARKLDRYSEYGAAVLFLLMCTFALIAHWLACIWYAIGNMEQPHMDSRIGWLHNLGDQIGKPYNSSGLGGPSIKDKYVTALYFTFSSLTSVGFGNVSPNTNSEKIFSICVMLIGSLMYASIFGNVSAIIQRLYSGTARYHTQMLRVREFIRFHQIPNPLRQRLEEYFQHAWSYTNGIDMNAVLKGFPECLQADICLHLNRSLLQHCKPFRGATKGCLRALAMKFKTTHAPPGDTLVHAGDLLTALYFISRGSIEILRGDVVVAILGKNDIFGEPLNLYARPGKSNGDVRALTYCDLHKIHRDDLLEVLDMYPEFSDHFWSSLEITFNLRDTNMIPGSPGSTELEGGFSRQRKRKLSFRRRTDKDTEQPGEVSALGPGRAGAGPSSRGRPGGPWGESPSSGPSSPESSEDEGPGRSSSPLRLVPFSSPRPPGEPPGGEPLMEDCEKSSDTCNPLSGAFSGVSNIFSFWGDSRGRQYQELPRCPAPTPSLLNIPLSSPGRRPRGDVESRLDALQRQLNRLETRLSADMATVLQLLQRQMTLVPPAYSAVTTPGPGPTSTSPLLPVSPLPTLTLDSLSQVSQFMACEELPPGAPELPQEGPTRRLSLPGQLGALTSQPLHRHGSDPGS

Cn1c(N(Cc2ccc(C(=O)Nc3nnn[nH]3)cc2)[C@H]2CC[C@H](C(C)(C)C)CC2)nc2cc(C(F)(F)F)ccc21
IC50 [1]: > 10 µM
Vd [2]: 0.5 L/kg
Activity [3]: Active
IC50 [4]: 6.8 µM
IC50 [5]: > 10 µM
half-life [6]: 126 min
Vd [7]: 0.74 L/kg
bioavailability [8]: 27%
IC50 [9]: 111 nM
bioavailability [10]: 2%
IC50 [11]: 11 nM
IC50 [12]: 6000 nM
Vd [13]: 0.33 L/kg
bioavailability [14]: 23%
half-life [15]: 144 min
Activity [16]: Active
IC50 [17]: > 10 µM
IC50 [18]: 62 nM
Selectivity ratio [19]: > 50
Activity [20]: Dose-dependent effect
IC50 [21]: > 10 µM
clearance [22]: 4 mL/min/kg
Activity [23]: Active
Selectivity ratio [24]: > 50
Vd [25]: 0.8 L/kg
clearance [26]: 3.8 mL/min/kg
half-life [27]: 96 min
bioavailability [28]: 5%
clearance [29]: 12 mL/min/kg
half-life [30]: 114 min
clearance [31]: 16 mL/min/kg

Cc1ccc2[nH]c(N(Cc3ccc(C(=O)Nc4nnn[nH]4)cc3)[C@H]3CC[C@H](C(C)(C)C)CC3)nc2c1
IC50 [11]: 10 nM
IC50 [18]: > 1000 nM

Cn1c(N(Cc2ccc(C(=O)Nc3nnn[nH]3)cc2)[C@H]2CC[C@H](C(C)(C)C)CC2)nc2cc(O)ccc21
IC50 [11]: 2 nM
IC50 [12]: > 1000 nM
IC50 [18]: > 1000 nM
Selectivity ratio [19]: > 50
Selectivity ratio [24]: > 50

CCCn1c(N(Cc2ccc(C(=O)Nc3nnn[nH]3)cc2)[C@H]2CC[C@H](C(C)(C)C)CC2)nc2ccccc21
IC50 [11]: 24 nM

CCCOc1ccc2nc(N(Cc3ccc(C(=O)Nc4nnn[nH]4)cc3)[C@H]3CC[C@H](C(C)(C)C)CC3)n(C)c2c1
IC50 [4]: 5 µM
IC50 [11]: 1 nM
IC50 [12]: 4900 nM
IC50 [18]: 8 nM
Selectivity ratio [19]: > 50
Selectivity ratio [24]: > 50

Cc1ccc2[nH]c(N(Cc3ccc(C(=O)Nc4nnn[nH]4)cc3)c3ccc(Oc4ccc(Cl)cc4)c(Cl)c3)nc2c1
IC50 [11]: 13 nM
IC50 [18]: > 1000 nM

COc1ccc2c(c1)nc(N(Cc1ccc(C(=O)Nc3nnn[nH]3)cc1)[C@H]1CC[C@H](C(C)(C)C)CC1)n2C
IC50 [4]: 5.9 µM
IC50 [11]: 4 nM
IC50 [12]: 2500 nM
IC50 [18]: 38 nM
Selectivity ratio [19]: > 50
Selectivity ratio [24]: > 50

CC(C)(C)[C@H]1CC[C@@]2(CCN(c3ccc(OC(F)(F)F)cc3)C(=O)N2Cc2ccc(C(=O)Nc3nnn[nH]3)cc2)CC1
IC50 [11]: 32 nM

Cn1c(N(Cc2ccc(C(=O)Nc3nnn[nH]3)cc2)[C@H]2CC[C@H](C(C)(C)C)CC2)nc2cc(OC3CCCC3)ccc21
IC50 [4]: 5 µM
Vd [7]: 0.6 L/kg
bioavailability [10]: 2%
IC50 [11]: 1 nM
IC50 [12]: 2000 nM
Vd [13]: 0.5 L/kg
IC50 [18]: 9 nM
Selectivity ratio [19]: > 50
clearance [22]: 10 mL/min/kg
Selectivity ratio [24]: > 50
half-life [27]: 174 min
bioavailability [28]: 5%
clearance [29]: 13 mL/min/kg
half-life [30]: 192 min

Cn1c(N(Cc2ccc(C(=O)Nc3nnn[nH]3)cc2)c2ccc(C(C)(C)C)cc2)nc2ccccc21
IC50 [11]: 31 nM
IC50 [18]: 810 nM

Cc1cc2nc(N(Cc3ccc(C(=O)Nc4nnn[nH]4)cc3)[C@H]3CC[C@H](C(C)(C)C)CC3)n(C)c2cc1C
IC50 [11]: 6 nM
IC50 [12]: > 10000 nM
IC50 [18]: 18 nM
Selectivity ratio [19]: > 50
Selectivity ratio [24]: > 50

CCOc1ccc2c(c1)nc(N(Cc1ccc(C(=O)Nc3nnn[nH]3)cc1)[C@H]1CC[C@H](C(C)(C)C)CC1)n2C
IC50 [4]: 7.6 µM
IC50 [11]: 2 nM
IC50 [12]: 2800 nM
IC50 [18]: 22 nM
Selectivity ratio [19]: > 50
Selectivity ratio [24]: > 50

COc1ccc2nc(N(Cc3ccc(C(=O)Nc4nnn[nH]4)cc3)[C@H]3CC[C@H](C(C)(C)C)CC3)n(C)c2c1
IC50 [11]: 4 nM
IC50 [12]: > 1000 nM
IC50 [18]: 213 nM
Selectivity ratio [19]: > 50
Selectivity ratio [24]: > 50
